Several values for one entry are separate records, joined by “and”; a condition that tells them apart may be missing. Identical values can stand only once.
The compounds below were run against EGFR (murine) (UniProt P00533). Details: nih3t3/c7.
EGFR (murine), sequence (P00533 whole entry, looked up): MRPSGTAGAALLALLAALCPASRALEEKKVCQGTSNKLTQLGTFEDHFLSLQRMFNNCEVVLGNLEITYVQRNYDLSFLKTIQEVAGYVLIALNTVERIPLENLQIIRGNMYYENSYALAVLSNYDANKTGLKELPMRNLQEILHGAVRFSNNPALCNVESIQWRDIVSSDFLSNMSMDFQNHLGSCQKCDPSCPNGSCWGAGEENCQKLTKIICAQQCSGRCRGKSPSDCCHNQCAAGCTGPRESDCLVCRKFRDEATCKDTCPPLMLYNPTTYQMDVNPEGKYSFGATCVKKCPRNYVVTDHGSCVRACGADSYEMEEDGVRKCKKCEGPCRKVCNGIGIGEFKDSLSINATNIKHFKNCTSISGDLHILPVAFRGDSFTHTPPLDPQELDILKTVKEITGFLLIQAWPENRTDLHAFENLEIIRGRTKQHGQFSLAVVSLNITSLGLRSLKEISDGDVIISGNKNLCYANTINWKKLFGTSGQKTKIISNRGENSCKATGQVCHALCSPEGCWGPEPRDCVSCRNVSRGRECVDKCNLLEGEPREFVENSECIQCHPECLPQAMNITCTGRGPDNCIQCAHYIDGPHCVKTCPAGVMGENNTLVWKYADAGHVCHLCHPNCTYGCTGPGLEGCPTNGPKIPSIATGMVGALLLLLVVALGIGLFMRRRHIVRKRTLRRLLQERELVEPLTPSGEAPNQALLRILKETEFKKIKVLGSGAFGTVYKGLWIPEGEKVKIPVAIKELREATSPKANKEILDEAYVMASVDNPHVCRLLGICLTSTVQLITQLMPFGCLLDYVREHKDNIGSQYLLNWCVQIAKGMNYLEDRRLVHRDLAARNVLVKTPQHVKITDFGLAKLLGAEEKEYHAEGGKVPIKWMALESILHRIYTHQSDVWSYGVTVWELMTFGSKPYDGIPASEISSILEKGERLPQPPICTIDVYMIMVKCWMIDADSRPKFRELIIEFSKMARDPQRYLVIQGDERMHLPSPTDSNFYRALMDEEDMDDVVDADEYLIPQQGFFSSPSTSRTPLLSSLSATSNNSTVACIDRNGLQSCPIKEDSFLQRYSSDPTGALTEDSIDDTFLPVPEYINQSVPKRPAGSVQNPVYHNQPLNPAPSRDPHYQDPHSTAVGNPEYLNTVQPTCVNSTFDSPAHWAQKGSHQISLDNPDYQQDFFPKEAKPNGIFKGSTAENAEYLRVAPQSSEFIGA

Row | SMILES | IC50
1 | Cc1ccc2ncnc(Nc3cccc(C(F)(F)F)c3)c2c1 | 0.86 µM
2 | CC(=O)C1=C(c2ccccc2)[NH+]([O-])c2ccccc2[NH+]1[O-] (stereo not drawn) | > 100 µM
3 | CC(C)(C)c1cc(/C=C(\C#N)S(=O)(=O)/C(C#N)=C/c2cc(C(C)(C)C)c(O)c(C(C)(C)C)c2)cc(C(C)(C)C)c1O | > 100 µM
4 | N#C/C(=C\c1cc(O)c(O)c(Br)c1)C(=O)NCCCNC(=O)/C(C#N)=C/c1cc(O)c(O)c(Br)c1 | 31.5 µM
5 | Cc1cc2nc(CSCCCSCc3nc4cc(C)c(C)cc4nc3-c3ccccc3)c(-c3ccccc3)nc2cc1C | 12.5 µM
6 | COC(=O)c1ccc(NCc2cc(O)ccc2O)cc1 | 43 µM
7 | CC(C)(C)c1cc(/C=C(\C#N)c2c(C#N)c(N)nn2-c2ccccc2)cc(C(C)(C)C)c1O | 25 µM
8 | CC(=O)ON=C(Cl)C1=C[NH+]([O-])c2cc(Cl)ccc2[NH+]1[O-] (stereo not drawn) | > 50 µM

Further lines, results first:

Row | IC50 | SMILES
9 | > 50 µM | N#CC(C#N)=CNNc1cccc(Cl)c1
10 | 0.06 µM | Cc1ccc2ncnc(Nc3cccc(Cl)c3)c2c1
11 | 0.16 µM and 0.2 µM | Clc1cccc(Nc2ncnc3ccccc23)c1

These compounds were tested against EGFR (human) (UniProt P00533). Details: a431.
EGFR (human), sequence (P00533 whole entry, looked up): as above

Row | IC50 | SMILES
12 | 10 µM and 20 µM | Cc1ccc2ncnc(Nc3cccc(Cl)c3)c2c1
13 | 20 µM | Clc1cccc(Nc2ncnc3ccccc23)c1

Reference: the Kinase Knowledgebase extract (Sharma et al. 2016)
